One experiment deals with SMARCA2 (Homo sapiens, UniProt P51531). Nature of the experiment: MSD SMARCA2 degradation in A549 cell line. Particulars: 24 h; for Dmax: A549, A549 cells; for DC50: A549 cells, read-out: SMARCA2 MSD A549 degradation 24 h: Average external-Abs DC50. In kind it is cell-based. A digest of the protocol:
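A549 cells treated 24 h with compound at final 0.152-1000 nM (3-fold series, DMSO control). Lysates analyzed by MSD immunoassay using anti-SMARCA2/BRM detection and SULFO-TAG secondary antibodies; maximal degradation (Dmax %) reported as letter bins.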

A further experiment concerns the target T1, SMARCA4 (Homo sapiens, UniProt P51532).
T1 construct: SMARCA2 and SMARCA4 protein degradation in MV4-11 cells; endogenous in cells; host or cells: MV4-11
The experiment is described as follows: SMARCA4 Western blot MV4-11 degradation. Particulars: 24 h; for Dmax: MV4-11, MV4-11 cells, read-out: SMARCA4 WB MV411 degradation 24 h: Average Dmax %; for DC50: MV4-11 cells, read-out: SMARCA4 WB MV411 degradation 24 h: Average external-Abs DC50. The experiment is classed as cell-based. A digest of the protocol: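 MV4-11 cells treated with compound for 24 h, lysed in RIPA with protease/phosphatase inhibitors, and SMARCA2 and SMARCA4 (BRG1) levels assessed by Western blot with β-actin loading control and LI-COR fluorescent read-out. Maximal degradation (Dmax %) after 24 h binned into letter codes.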
(In general: Immunoblotting shows a protein as a band on a membrane.)

The structures appear in SMILES notation. Some results are limits rather than exact numbers.

For 24 compounds, Dmax and DC50 results are on record in patent US12624044B2, “SMARCA degraders and uses thereof” (Kymera Therapeutics, Inc., priority 2019, dated 2026).

T1 sequence (P51532 whole entry): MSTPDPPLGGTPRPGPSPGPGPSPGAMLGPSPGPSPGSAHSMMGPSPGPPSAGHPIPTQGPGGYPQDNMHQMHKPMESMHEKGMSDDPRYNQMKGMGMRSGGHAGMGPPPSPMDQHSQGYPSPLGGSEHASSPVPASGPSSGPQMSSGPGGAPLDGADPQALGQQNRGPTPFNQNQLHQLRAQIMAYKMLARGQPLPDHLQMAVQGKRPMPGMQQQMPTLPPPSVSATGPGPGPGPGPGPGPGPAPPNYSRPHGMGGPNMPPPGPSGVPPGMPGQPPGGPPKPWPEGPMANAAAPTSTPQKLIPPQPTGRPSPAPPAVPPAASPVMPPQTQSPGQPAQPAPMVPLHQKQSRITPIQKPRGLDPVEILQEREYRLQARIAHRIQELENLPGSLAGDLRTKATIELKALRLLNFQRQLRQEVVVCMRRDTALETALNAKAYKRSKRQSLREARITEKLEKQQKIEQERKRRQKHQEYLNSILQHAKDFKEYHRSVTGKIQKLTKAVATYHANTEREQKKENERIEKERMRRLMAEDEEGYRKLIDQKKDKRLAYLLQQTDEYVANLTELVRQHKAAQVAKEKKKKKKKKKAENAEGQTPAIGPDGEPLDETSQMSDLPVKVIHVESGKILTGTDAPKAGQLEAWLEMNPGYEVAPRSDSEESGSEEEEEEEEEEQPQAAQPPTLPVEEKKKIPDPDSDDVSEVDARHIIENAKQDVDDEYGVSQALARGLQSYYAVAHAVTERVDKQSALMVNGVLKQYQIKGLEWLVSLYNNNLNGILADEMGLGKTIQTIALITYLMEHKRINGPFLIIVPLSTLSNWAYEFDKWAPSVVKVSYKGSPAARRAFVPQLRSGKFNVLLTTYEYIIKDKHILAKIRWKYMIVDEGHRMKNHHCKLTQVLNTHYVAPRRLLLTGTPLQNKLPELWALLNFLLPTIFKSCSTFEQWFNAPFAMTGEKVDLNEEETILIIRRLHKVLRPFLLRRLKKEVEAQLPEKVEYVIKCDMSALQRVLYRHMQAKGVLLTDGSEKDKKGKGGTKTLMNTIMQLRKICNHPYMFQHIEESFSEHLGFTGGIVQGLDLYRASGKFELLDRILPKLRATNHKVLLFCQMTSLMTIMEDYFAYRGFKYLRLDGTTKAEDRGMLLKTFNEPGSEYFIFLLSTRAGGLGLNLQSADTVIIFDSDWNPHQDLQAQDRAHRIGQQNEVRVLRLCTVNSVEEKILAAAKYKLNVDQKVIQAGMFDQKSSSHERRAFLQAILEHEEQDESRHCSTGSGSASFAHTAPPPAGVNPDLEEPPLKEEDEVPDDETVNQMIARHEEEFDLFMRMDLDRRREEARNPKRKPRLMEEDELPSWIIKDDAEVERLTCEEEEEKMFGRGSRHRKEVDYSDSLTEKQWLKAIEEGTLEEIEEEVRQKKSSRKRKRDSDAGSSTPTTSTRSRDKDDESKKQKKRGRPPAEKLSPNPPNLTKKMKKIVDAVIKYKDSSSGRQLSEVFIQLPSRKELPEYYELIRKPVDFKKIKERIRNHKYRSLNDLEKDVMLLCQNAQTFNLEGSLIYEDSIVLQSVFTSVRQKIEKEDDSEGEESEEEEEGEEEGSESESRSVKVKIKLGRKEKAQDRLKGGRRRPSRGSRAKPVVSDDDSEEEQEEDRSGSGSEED
SMARCA2, sequence (P51531 whole entry): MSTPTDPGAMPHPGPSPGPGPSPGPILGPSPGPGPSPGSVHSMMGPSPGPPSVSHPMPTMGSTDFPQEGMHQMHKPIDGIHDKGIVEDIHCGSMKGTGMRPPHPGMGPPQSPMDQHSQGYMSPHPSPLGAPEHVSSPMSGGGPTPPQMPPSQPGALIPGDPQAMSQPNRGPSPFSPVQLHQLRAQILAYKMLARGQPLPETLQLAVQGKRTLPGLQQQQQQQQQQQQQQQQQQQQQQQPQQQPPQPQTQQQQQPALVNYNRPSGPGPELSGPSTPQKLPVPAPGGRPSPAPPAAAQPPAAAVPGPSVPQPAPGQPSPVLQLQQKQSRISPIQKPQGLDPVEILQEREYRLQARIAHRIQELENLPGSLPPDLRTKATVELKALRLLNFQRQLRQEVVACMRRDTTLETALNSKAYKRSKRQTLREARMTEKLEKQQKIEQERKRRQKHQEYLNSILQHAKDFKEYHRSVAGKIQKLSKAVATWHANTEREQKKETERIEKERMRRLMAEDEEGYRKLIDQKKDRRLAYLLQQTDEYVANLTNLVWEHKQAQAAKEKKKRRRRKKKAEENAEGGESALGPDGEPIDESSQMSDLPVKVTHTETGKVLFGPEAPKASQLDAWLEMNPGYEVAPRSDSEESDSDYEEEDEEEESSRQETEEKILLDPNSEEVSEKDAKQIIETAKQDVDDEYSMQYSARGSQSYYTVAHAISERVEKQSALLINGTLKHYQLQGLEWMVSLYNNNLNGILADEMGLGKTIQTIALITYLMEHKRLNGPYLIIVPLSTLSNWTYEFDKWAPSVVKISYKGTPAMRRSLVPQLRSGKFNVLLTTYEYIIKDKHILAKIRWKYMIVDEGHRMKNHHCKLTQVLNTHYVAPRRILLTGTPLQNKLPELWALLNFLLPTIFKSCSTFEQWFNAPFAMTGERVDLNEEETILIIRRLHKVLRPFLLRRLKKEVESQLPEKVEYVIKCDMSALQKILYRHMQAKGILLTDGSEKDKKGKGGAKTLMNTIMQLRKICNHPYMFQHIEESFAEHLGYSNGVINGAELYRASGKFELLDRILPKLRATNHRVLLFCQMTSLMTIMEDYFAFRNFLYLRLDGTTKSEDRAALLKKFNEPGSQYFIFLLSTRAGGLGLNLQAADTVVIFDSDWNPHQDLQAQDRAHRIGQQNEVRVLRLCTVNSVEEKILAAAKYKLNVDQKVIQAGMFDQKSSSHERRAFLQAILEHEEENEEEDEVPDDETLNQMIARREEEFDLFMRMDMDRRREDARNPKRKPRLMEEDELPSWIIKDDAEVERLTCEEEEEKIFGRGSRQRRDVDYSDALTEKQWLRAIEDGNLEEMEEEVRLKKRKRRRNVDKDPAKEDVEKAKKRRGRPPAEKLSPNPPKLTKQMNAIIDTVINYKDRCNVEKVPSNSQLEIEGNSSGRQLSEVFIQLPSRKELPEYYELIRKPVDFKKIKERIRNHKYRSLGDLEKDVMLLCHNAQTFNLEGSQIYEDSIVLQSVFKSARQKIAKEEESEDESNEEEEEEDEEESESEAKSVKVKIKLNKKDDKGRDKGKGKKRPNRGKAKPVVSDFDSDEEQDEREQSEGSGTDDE

The term Dmax denotes the largest share of the target that was removed. In general, DC50 refers to the concentration at which degradation of the target reaches its halfway point. For `Cc1ncsc1-c1ccc(CNC(=O)[C@@H]2C[C@@H](O)CN2C(=O)[C@@H](NC(=O)CCCCN2CCC(c3cnc(N4C5CCC4CN(c4cc(-c6ccccc6O)nnc4N)C5)nc3)CC2)C(C)(C)C)cc1` [I-383], at SMARCA2, the Dmax was below 50% and the half-maximal degradation concentration (DC50) is above 1000 nM. Further, on SMARCA4, the Dmax was above 90% and the DC50 is above 1000 nM.

As to `Cc1ncsc1-c1ccc(CNC(=O)[C@@H]2C[C@@H](O)CN2C(=O)[C@@H](NC(=O)C2CCN(Cc3cnc(N4C5CCC4CN(c4cc(-c6ccccc6O)nnc4N)C5)nc3)CC2)C(C)(C)C)cc1` [I-384], the DC50 was 100 to 500 nM on SMARCA2 and below 100 nM at SMARCA4.

With `Cc1ncsc1-c1ccc(CNC(=O)[C@@H]2C[C@@H](O)CN2C(=O)[C@@H](NC(=O)C2CN(Cc3cnc(N4C5CCC4CN(c4cc(-c6ccccc6O)nnc4N)C5)nc3)C2)C(C)(C)C)cc1` [I-385], at SMARCA2, the greatest degradation seen (Dmax) lay in the range of 50 to 70% and the DC50 lay within 501 to 1000 nM. In addition, at SMARCA4, the Dmax was above 90% and the half-maximal degradation concentration (DC50) is below 100 nM.

For the compound `Cc1ncsc1-c1ccc(CNC(=O)[C@@H]2C[C@@H](O)CN2C(=O)[C@@H](NC(=O)[C@@H]2CCN(Cc3cnc(N4C5CCC4CN(c4cc(-c6ccccc6O)nnc4N)C5)nc3)C2)C(C)(C)C)cc1` [I-386, (2S,4R)-1-((2S)-2-((3R)-1-((2-(3-(3-amino-6-(2-hydroxyphenyl)pyridazin-4-yl)-3,8-diazabicyclo[3.2.1]octan-8-yl)pyrimidin-5-yl)methyl)pyrrolidine-3-carboxamido)-3,3-dimethylbutanoyl)-4-hydroxy-N-(4-(4-methylthiazol-5-yl)benzyl)pyrrolidine-2-carboxamide], the Dmax on SMARCA2 is 50 to 70%; on SMARCA4, above 90%. Moreover, the DC50 on SMARCA2 fell in the range of 501 to 1000 nM; at SMARCA4, 100 to 500 nM.

In the case of `Cc1ncsc1-c1ccc(CNC(=O)[C@@H]2C[C@@H](O)CN2C(=O)[C@@H](NC(=O)[C@H]2CCN(Cc3cnc(N4C5CCC4CN(c4cc(-c6ccccc6O)nnc4N)C5)nc3)C2)C(C)(C)C)cc1` [I-387], at SMARCA2, the Dmax was below 50% and the DC50 was above 1000 nM. On SMARCA4, the greatest degradation seen (Dmax) was above 90% and the DC50 was in the range of 501 to 1000 nM.

Consider `Cc1ncsc1-c1ccc(CNC(=O)[C@@H]2C[C@@H](O)CN2C(=O)C(N(C)C(=O)C[C@H]2CC[C@H](N3CCC(c4cnc(N5C6CCC5CN(c5cc(-c7ccccc7O)nnc5N)C6)nc4)CC3)CC2)C(C)(C)C)cc1` (stereo partly drawn) [I-388], for which, at SMARCA2, the Dmax was above 90% and the DC50 was in the range of 100 to 500 nM. In addition, at SMARCA4, the Dmax was in the range of 70 to 90% and the 50% degradation concentration (DC50) was below 100 nM.

On to `CC(C)(C)[C@H](NC(=O)C1(F)CC1)C(=O)N1C[C@H](O)C[C@H]1C(=O)NCc1ccc(-c2scnc2-c2ccc3cn[nH]c3c2)cc1OCCc1ccc(CN2CCN(c3cc(-c4ccccc4O)nnc3N)CC2)cc1` [I-447, (2S,4R)—N-(4-(4-(1H-indazol-6-yl)thiazol-5-yl)-2-(4-((4-(3-amino-6-(2-hydroxyphenyl)pyridazin-4-yl)piperazin-1-yl)methyl)phenethoxy)benzyl)-1-((S)-2-(1-fluorocyclopropanecarboxamido)-3,3-dimethylbutanoyl)-4-hydroxypyrrolidine-2-carboxamide], for which the Dmax at SMARCA2 and at SMARCA4 was above 90% each time. Also, the DC50 is 100 to 500 nM on SMARCA2 and below 100 nM at SMARCA4.

As for `Cc1ncsc1-c1ccc(CNC(=O)[C@@H]2C[C@@H](O)CN2C(=O)[C@@H](NC(=O)CCCN2CCCC(n3cc(-c4cc(-c5ccccc5O)nnc4N)cn3)C2)C(C)(C)C)cc1` (stereo partly drawn) [I-454], at SMARCA2, the Dmax was below 50% and the DC50 is above 1000 nM. For the same compound, at SMARCA4, the greatest degradation seen (Dmax) was below 50% and the DC50 is above 1000 nM.

For the compound `Cc1ncsc1-c1ccc(CNC(=O)[C@@H]2C[C@@H](O)CN2C(=O)[C@@H](NC(=O)CCN2CCN(Cc3ccc(-c4cc(-c5ccccc5O)nnc4N)cc3)CC2)C(C)(C)C)cc1` [I-474], at SMARCA2, the Dmax was below 50% and the DC50 was above 1000 nM. The Dmax on SMARCA4 was 70 to 90%.

On to `Cc1ncsc1-c1ccc(CNC(=O)[C@@H]2C[C@@H](O)CN2C(=O)[C@@H](NC(=O)CCN2CCC[C@H](Cn3cc(-c4cc(-c5ccccc5O)nnc4N)cn3)C2)C(C)(C)C)cc1` [I-478], for which, on SMARCA2, the Dmax was below 50% and the half-maximal degradation concentration (DC50) was above 1000 nM. On SMARCA4, the Dmax was below 50% and the DC50 is above 1000 nM.

Turning to `Cc1ncsc1-c1ccc(CNC(=O)[C@@H]2C[C@@H](O)CN2C(=O)[C@@H](NC(=O)CCCCN2CCC[C@H](Cn3cc(-c4cc(-c5ccccc5O)nnc4N)cn3)C2)C(C)(C)C)cc1` [I-480], at SMARCA2, the Dmax is below 50% and the DC50 is above 1000 nM. For the same compound, at SMARCA4, the Dmax is below 50% and the DC50 was above 1000 nM.

Regarding `Cc1ncsc1-c1ccc(CNC(=O)[C@@H]2C[C@@H](O)CN2C(=O)[C@@H](NC(=O)[C@H](C)N2CCC(c3cnc(N4C5CCC4CN(c4cc(-c6ccccc6O)nnc4N)C5)nc3)CC2)C(C)(C)C)cc1` [I-481], on SMARCA2, the Dmax was below 50% and the DC50 is above 1000 nM. On SMARCA4, the maximal degradation (Dmax) was above 90% and the DC50 is above 1000 nM.

On to `Cc1ncsc1-c1ccc(CNC(=O)[C@@H]2C[C@@H](O)CN2C(=O)[C@@H](NC(=O)[C@@H](C)N2CCC(c3cnc(N4C5CCC4CN(c4cc(-c6ccccc6O)nnc4N)C5)nc3)CC2)C(C)(C)C)cc1` [I-482], for which the Dmax on SMARCA2 is 70 to 90%; at SMARCA4 it was above 90%. In addition, the half-maximal degradation concentration (DC50) at SMARCA2 is 501 to 1000 nM; at SMARCA4, above 1000 nM.

Turning to `Cc1ncsc1-c1ccc(CNC(=O)[C@@H]2C[C@@H](O)CN2C(=O)[C@@H](NC(=O)C2CCC(N3CCC(n4cc(-c5cc(-c6ccccc6O)nnc5N)cn4)CC3)CC2)C(C)(C)C)cc1` (stereo partly drawn) [I-483], the Dmax at SMARCA2 was 70 to 90%; on SMARCA4, below 50%. In addition, the half-maximal degradation concentration (DC50) at SMARCA2 is 100 to 500 nM; on SMARCA4, above 1000 nM.

As for `Cc1ncsc1-c1ccc(CNC(=O)[C@@H]2C[C@@H](N)CN2C(=O)[C@@H](NC(=O)CCCNCc2ccc(C#Cc3cc(NC(=O)Nc4cc(F)ncc4CO)ccn3)cc2)C(C)(C)C)cc1` [I-492], at SMARCA2, the Dmax is below 50% and the DC50 was above 1000 nM. For the same compound, at SMARCA4, the Dmax was below 50% and the DC50 is above 1000 nM.

For the compound `Cc1ncsc1-c1ccc(CNC(=O)[C@@H]2C[C@@H](O)CN2C(=O)[C@@H](NC(=O)CCN(C)CC#Cc2cnc(N3C4CCC3CN(c3cc(-c5ccccc5O)nnc3N)C4)nc2)C(C)(C)C)cc1` [I-496], at SMARCA2, the Dmax lay within 70 to 90% and the DC50 was in the range of 501 to 1000 nM. Besides, on SMARCA4, the Dmax is above 90% and the DC50 is below 100 nM.

Regarding `Cc1ncsc1-c1ccc(CNC(=O)[C@@H]2C[C@@H](O)CN2C(=O)[C@@H](NC(=O)CC2CCC(c3cnc(N4C5CCC4CN(c4cc(-c6ccccc6O)nnc4N)C5)nc3)CC2)C(C)(C)C)cc1` (stereo partly drawn) [I-502], the Dmax on SMARCA2 and at SMARCA4 was above 90% each time. Also, the DC50 at SMARCA2 and on SMARCA4 was below 100 nM each time.

As for `Cc1ncsc1-c1ccc(CNC(=O)[C@@H]2C[C@@H](O)CN2C(=O)[C@@H](NC(=O)C2CCC(CCCCCN3CCC(Cn4cc(-c5cc(-c6ccccc6O)nnc5N)cn4)CC3)CC2)C(C)(C)C)cc1` (stereo partly drawn) [I-504], the greatest degradation seen (Dmax) at SMARCA2 and on SMARCA4 was above 90% each time. In addition, the DC50 at SMARCA2 and at SMARCA4 was 100 to 500 nM throughout.

On to `Cc1ncsc1-c1ccc(CNC(=O)[C@@H]2C[C@@H](O)CN2C(=O)[C@@H](NC(=O)c2ccc(CCCCCN3CCC(Cn4cc(-c5cc(-c6ccccc6O)nnc5N)cn4)CC3)cc2)C(C)(C)C)cc1` [I-505], for which the Dmax on SMARCA2 and on SMARCA4 was above 90% each time. The 50% degradation concentration (DC50) on SMARCA2 and at SMARCA4 was 100 to 500 nM throughout.

For the compound `Cc1ncsc1-c1ccc(CNC(=O)[C@@H]2C[C@@H](O)CN2C(=O)[C@@H](NC(=O)c2ccc(C#CCCCN3CCC(Cn4cc(-c5cc(-c6ccccc6O)nnc5N)cn4)CC3)cc2)C(C)(C)C)cc1` [I-506], the Dmax at SMARCA2 and on SMARCA4 was above 90% each time. Besides, the results for the DC50 at SMARCA2 and at SMARCA4 were 100 to 500 nM and below 100 nM, respectively.

Regarding `Cc1ncsc1-c1ccc(CNC(=O)[C@@H]2C[C@@H](O)CN2C(=O)[C@@H](NC(=O)c2ccc(-c3ccc(CN4CCC(Cn5cc(-c6cc(-c7ccccc7O)nnc6N)cn5)CC4)cc3)cc2)C(C)(C)C)cc1` [I-507], the Dmax on SMARCA2 and at SMARCA4 was above 90% throughout. For the same compound, the DC50 on SMARCA2 and on SMARCA4 was below 100 nM in each case.

Consider `Cc1ncsc1-c1ccc(CNC(=O)[C@@H]2C[C@@H](O)CN2C(=O)[C@@H](NC(=O)Cc2ccc(-c3ccc(N4CCC(Cn5cc(-c6cc(-c7ccccc7O)nnc6N)cn5)CC4)cc3)cc2)C(C)(C)C)cc1` [I-508], for which the Dmax at SMARCA2 and on SMARCA4 was below 50% throughout. Also, the DC50 at SMARCA2 and at SMARCA4 was above 1000 nM each time.

For the compound `Cc1ncsc1-c1ccc(CNC(=O)[C@@H]2C[C@@H](O)CN2C(=O)[C@@H](NC(=O)CC2CCC(N3CCC(c4cnc(N5C6CCC5CN(c5cc(-c7ccccc7O)nnc5N)C6)nc4)CC3)CC2)C(C)(C)C)cc1` (stereo partly drawn) [I-511], at SMARCA2, the Dmax was above 90% and the DC50 lay in the range of 100 to 500 nM. Further, on SMARCA4, the maximal degradation (Dmax) is above 90% and the DC50 was below 100 nM.

Turning to `Cc1ncsc1-c1ccc(CNC(=O)[C@@H]2C[C@@H](O)CN2C(=O)[C@@H](NC(=O)CC2CC(N3CCC(c4cnc(N5C6CCC5CN(c5cc(-c7ccccc7O)nnc5N)C6)nc4)CC3)C2)C(C)(C)C)cc1` (stereo partly drawn) [I-512], on SMARCA2, the Dmax lay in the range of 70 to 90% and the DC50 lay within 100 to 500 nM. For the same compound, on SMARCA4, the Dmax is below 50% and the DC50 was above 1000 nM.
